Test results taken from patent US20240269128A1, “COMPOUNDS FOR TREATING OR PREVENTING ALZHEIMER'S DISEASE” (THE UNITED STATES OF AMERICA, as represented by the …, priority 2021, published 2024).

What was measured:
STAT3 = STAT3 (Mus musculus, UniProt P42227); assay: Western blot of total and phosphorylated STAT3 in mouse embryonic cortical neurons; format: cell-based; design: hippocampal homogenate samples across four groups; from tissue; host or cells: acute hippocampal slices from WT and APP/PS1 (APPSwe/PS1dE9) mice; details: 50 μM, 48 hours
STAT3, sequence (P42227 whole entry): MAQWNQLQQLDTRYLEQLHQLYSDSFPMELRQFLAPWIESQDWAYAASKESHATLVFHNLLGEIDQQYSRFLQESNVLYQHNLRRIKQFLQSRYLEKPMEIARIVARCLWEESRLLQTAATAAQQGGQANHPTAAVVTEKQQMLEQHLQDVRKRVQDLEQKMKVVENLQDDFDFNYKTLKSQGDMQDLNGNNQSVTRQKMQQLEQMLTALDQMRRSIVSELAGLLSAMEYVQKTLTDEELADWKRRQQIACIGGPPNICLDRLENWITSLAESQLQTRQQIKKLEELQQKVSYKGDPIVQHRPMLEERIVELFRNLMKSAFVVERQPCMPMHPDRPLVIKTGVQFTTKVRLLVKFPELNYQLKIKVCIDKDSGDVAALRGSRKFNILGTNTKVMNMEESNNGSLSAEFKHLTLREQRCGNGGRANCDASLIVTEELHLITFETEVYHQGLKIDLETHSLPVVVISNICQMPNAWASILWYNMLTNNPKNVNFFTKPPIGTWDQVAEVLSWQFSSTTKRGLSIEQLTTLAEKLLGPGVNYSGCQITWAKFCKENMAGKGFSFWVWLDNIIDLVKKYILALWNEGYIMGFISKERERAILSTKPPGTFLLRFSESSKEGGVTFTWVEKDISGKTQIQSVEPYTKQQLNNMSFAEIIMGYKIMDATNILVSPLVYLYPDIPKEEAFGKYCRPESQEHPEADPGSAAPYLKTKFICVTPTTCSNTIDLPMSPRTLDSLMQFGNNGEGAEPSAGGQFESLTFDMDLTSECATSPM
Procedure: For primary cultures of embryonic cortical neurons, timed-pregnant mice were obtained from The Jackson Laboratory. Cultures were prepared from embryonic day (E) 14.5 cerebral tissues as described (Zhao et al., Cell Death Differ 2019, 26:1600-1614). Pregnant mice were killed by fast cervical dislocation, embryos and embryo brains were removed, and the cerebral hemisphere was extracted in sterile Hank's balanced saline solution (HBSS). Brain tissues were incubated in 0.25% trypsin-EDTA for 30 min at 37° C.and then transferred to DMEM containing 10% fetal bovine serum (DMEM+). The tissues were transferred to neurobasal (NB) medium containing B27 supplements, 2 mM L-glutamine, antibiotics and antimycotics (Gibco), and 1 mM HEPES and dissociated by trituration using a fire-polished Pasteur pipet. The dissociated cells were seeded into polyethyleneimine-coated plastic culture dishes at a density of 60,000 cells/cm^2 and cultured in the same B27-containing NB medium. Experiments were started 5 days later.
HCQ treatment: Treatment with hydroxychloroquine Sulfate (Selleckchem, Catalog No.S4430) was performed at 50 μM concentration. […]
Statistical analysis: Digitized images were obtained, processed, and quantified with ImageLab version 6.1 (BioRad Laboratories).

[1] = albino rats; cited from earlier work
[2] = tested on: Alzheimer's disease and related dementia (ADRD) in rheumatoid arthritis patients; assay: Medicare claims cohort study of incident ADRD, HCQ vs methotrexate; format: in vivo, human
Text: The full study protocol for patient-level analysis in Medicare claims was pre-registered on clinicaltrials.gov prior to data analysis (NCT04691505) and contains detailed information on implementation including all codes that were used to identify study variables to allow future replication. The following sections summarize key methodologic details. Data source: Medicare Fee-For-Service claims data from 2007 through 2017 were used. Medicare Part A (hospitalizations), B (medical services), and D (prescription medications) claims are available for research purposes through the Centers for Medicare and Medicaid Services. A signed data use agreement with the CMS was available and the Brigham and Women's Hospital's Institutional Review Board approved this study. Study cohort: A new user, active comparator, observational cohort study design comparing methotrexate to hydroxychloroquine was employed. The patients were required to have continuous enrollment in Medicare parts A, B, and D during the baseline period of 365 days before initiation date of methotrexate or hydroxychloroquine, which was defined as the cohort entry date. Patients were required to have ≥1 diagnosis codes of rheumatoid arthritis during the baseline period but no prior use of any disease modifying antirheumatic treatments. Patients with existing diagnosis of Alzheimer's disease and related dementia (ADRD) any time prior to and including cohort entry date were excluded to focus on incident events. Patients with nursing home admission in 365 days prior to and including cohort entry date also were excluded as medication records for short nursing home stays are unavailable in Medicare claims. Outcome measurement: The endpoint of ADRD was identified based on diagnosis codes, recorded on 1 inpatient claim or 2 outpatient claims, of Alzheimer's disease, vascular dementia, senile, presenile, or unspecified dementia, or dementia in other diseases classified elsewhere. […] Alternative analytic approaches: To accommodate various uncertainties involved in pharmacoepidemiologic investigations focused on ADRD risk, the following alternative analyses were employed. Analysis 1—‘As-treated’ follow-up approach: In this approach, the follow-up started on the day following the cohort entry date and continued until treatment discontinuation or switch (to comparator treatment), insurance disenrollment, death, or administrative endpoint (December 2017). A 90-day ‘grace period’ after the end of the expected days-supply of the most recently filled prescription was considered to define the treatment discontinuation date to accommodate for suboptimal adherence during treatment periods. […] This follow-up approach addresses concerns related to informative censoring if patients discontinue or if physicians de-prescribe the treatments under consideration because of memory problems associated with ADRD, but the diagnosis is not recorded in the electronic healthcare records until after the end of follow-up due to treatment-related censoring. Analysis 3—incorporating a 6-month ‘symptoms to diagnosis’ period: In this approach, an outcome date was assigned that was 6 months before the first recorded ADRD date and excluded last 6 months of follow-up for those who are censored without an event to account for the possibility that ADRD symptoms likely appear some time before a formal diagnosis is recorded in insurance records, which leads to misclassification of ADRD onset. […]

[3] = tested on: Primary hippocampal neurons; assay: Neurite outgrowth and neurogenesis; format: cell-based, mouse; details: HCQ 25, 2.5 or 0.25 μM
Procedure: Neurite outgrowth and neurogenesis: Primary hippocampal neurons were prepared from E18.5 timed pregnant C57BL/6JRccHsd mice as previously described. Cells were seeded in poly-D-lysine pre-coated 96-well plates at a density of 2.6×10^4 cells/well in (Neurobasal, 2% B-27, 0.5 mM glutamine, 25 μM glutamate, 1% Penicillin-Streptomycin). Directly on DIV1 HCQ (TargetMol, T0951) at 25 μM, 2.5 μM or 0.25 μM concentrations or vehicle control was applied. On DIV2 10 μM Bromodeoxyuridine (BrdU; B5002 Sigma Aldrich) was added and cells were fixed after additional 24 h. Cells were permeabilized with 0.1% Triton-X and incubated with primary Beta Tubulin Isotype III (T8660, Sigma Aldrich) and BrdU antibodies (MAS250c, AHrlan-Sera Lab) overnight at 4° C. Afterwards cells were washed two times with PBS and incubated with fluorescently labeled secondary antibodies and DAPI for 1.5 hour at RT in the darkness. Cells were rinsed three times with PBS imaged with the Cytation 5 Multimode reader (BioTek) at 10× magnification (6 images per well). BrdU positive cells were counted as marker for neurogenesis and Beta Tubulin Isotype III signal was used for macro-based quantification of neurite outgrowth.

p-STAT3 (Tyr705 and Ser727) (STAT3): reduced
total STAT3 (STAT3): without alteration
Structure (SMILES): CCN(CCO)CCCC(C)Nc1ccnc2cc(Cl)ccc12 (stereo not drawn) [HCQ, hydroxychloroquine]
Kp brain/plasma [1]: 4-31
lower risk of ADRD ([2]; Analysis 1, as-treated, vs MTX initiators): 8%
lower risk of ADRD ([2]; Analysis 2, as-started, 6-month induction period): 13%
lower risk of ADRD ([2]; Analysis 3, 6-month symptom to claims period): 16%
cumulative incidence of ADRD ([2]; after approximately 2 years of treatment, compared to MTX, all four analyses): lower cumulative incidence
lowering of incident AD ([2]; relative to methotrexate, across analyses): 8-16%
neurite outgrowth and neurogenesis [3]: No effects
